Consider two substances from patent US8557512B2, “Method of screening activators and/or inhibitors of insulin receptor substrate 2” (HMI Medical Innovations, LLC, priority 2003, dated 2013).

Where no end group is shown, it is not given here.

Test [1] deals with IRS2. As to the kind of experiment: IRS2 levels in mouse islets. Format: cell-based. The text has this:
(§1) Drugs that increase IRS2 expression in mice stimulate beta cell function. An example of such a drug is exendin-4. Exendin-4 is a homolog of the natural peptide produced in the intestine called glucagon-like peptide-1. GLP1/Ex4 upregulates IRS2 levels in β-cells because they stimulate the production of cAMP. […] Other drugs that increase cAMP levels in these and other cells also increase IRS2 levels and stimulate its signaling pathways. Many of the positive actions of GLPL1/Ex4 on mouse and human cells are prevented by blocking the IRS2 gene from expressing its IRS2 protein product.

Test [2] has as its system IRS2. Nature of the test: IRS2 levels in human islets. Format: cell-based.
From the text: as §1

The subject of test [3] is IRS2. As to the kind of experiment: IRS2 upregulation in beta cells and other cells. Format: cell-based. From the text: (§2) Furthermore, GLP-1 also stimulates β-cell proliferation and neogenesis, and reduces or eliminates apoptosis of β-cells.
Test [4] relates to IRS2. As to conditions: β-cell lines; Jhala et al., Genes Dev. 17:1575-1580 (2003); cited from earlier work.
For another test, the system named is IRS2 mice. Nature of the test: Restoration of normal glucose homeostasis in IRS2 mice. Format: in vivo. As to conditions: administration by injection.
From the text: as §2

Take “glucagon-like peptide-1 (HAEGTFTSDVSSYLEGQAAKEFIAWLVKGR; ends and bridges not checked; UniProt P01275 98-127, looked up) [GLP-1, natural peptide produced in the intestine]”: the “levels of IRS2” value in the test on IRS2 [1] and with IRS2 [2] was “upregulate the levels of IRS2” throughout. In addition, in the test on IRS2 [3], the IRS2 upregulation result is “strongly up regulates IRS2”. The IRS2 expression entry with IRS2 [4] is on record as “strongly increases IRS2 expression”.
Regarding exendin-4, the “levels of IRS2” value in the test on IRS2 [1] and in the test on IRS2 [2] was “upregulate the levels of IRS2” each time. For the same substance, the “restore normal glucose homeostasis” value in the test on IRS2 mice is reported as “unsuccessful”. Besides, the IRS2 expression result in the test with IRS2 [4] is recorded as “strongly increases IRS2 expression”.
